# ± gives the expanded uncertainty stated by the source.
# Assay: xn = mol fraction of the nth substance listed
# Conditions: 298.15 K, Ring tensiometer
SMILES,surface tension liquid-gas (x1 = 0.1) [mN/m],surface tension liquid-gas (x1 = 0.2) [mN/m],surface tension liquid-gas (x1 = 0.3) [mN/m],surface tension liquid-gas (x1 = 0.4) [mN/m],surface tension liquid-gas (x1 = 0.5) [mN/m],surface tension liquid-gas (x1 = 0.6) [mN/m],surface tension liquid-gas (x1 = 0.7) [mN/m],surface tension liquid-gas (x1 = 0.8) [mN/m],surface tension liquid-gas (x1 = 0.9) [mN/m],surface tension liquid-gas (x1 = 1) [mN/m],surface tension liquid-gas (x1 = 0.02) [mN/m],surface tension liquid-gas (x1 = 0.04) [mN/m],surface tension liquid-gas (x1 = 0.08) [mN/m],surface tension liquid-gas (x1 = 0.12) [mN/m],surface tension liquid-gas (x1 = 0.14) [mN/m]
"CCOP(=O)([O-])OCC.CCn1cc[n+](CC)c1 [1,3-diethyl-1H-imidazol-3-ium diethyl phosphate] + CCO",22.6 ± 0.3,23.4 ± 0.4,24.6 ± 0.4,26.3 ± 0.4,27.8 ± 0.4,29.6 ± 0.4,31.1 ± 0.4,32.5 ± 0.5,34.1 ± 0.5,35.5 ± 0.5,–,–,–,–,–
"CCOP(=O)([O-])OCC.CCn1cc[n+](CC)c1 [1,3-diethyl-1H-imidazol-3-ium diethyl phosphate] + CO",26.4 ± 0.4,28.6 ± 0.4,30.3 ± 0.4,31.6 ± 0.5,33 ± 0.5,34 ± 0.5,34.4 ± 0.5,36.1 ± 0.5,35.9 ± 0.5,35.5 ± 0.5,–,–,–,–,–
"CCOP(=O)([O-])OCC.CCn1cc[n+](CC)c1 [1,3-diethyl-1H-imidazol-3-ium diethyl phosphate] + O",40.7 ± 0.7,37.4 ± 0.5,37.2 ± 0.5,36.6 ± 0.5,36.4 ± 0.5,36.2 ± 0.5,36 ± 0.5,36.1 ± 0.5,35.9 ± 0.5,35.5 ± 0.5,–,–,–,–,–
"COP(=O)([O-])OC.Cn1cc[n+](C)c1 [1,3-dimethylimidazolium dimethylphosphate] + CCO",23.2 ± 0.4,24.5 ± 0.4,26.1 ± 0.4,28.2 ± 0.4,30.5 ± 0.4,32.7 ± 0.5,35 ± 0.5,37.5 ± 0.5,41.4 ± 0.6,48.4 ± 0.6,–,–,–,–,–
"COP(=O)([O-])OC.Cn1cc[n+](C)c1 [1,3-dimethylimidazolium dimethylphosphate] + CO",26.9 ± 0.4,30.4 ± 0.4,33.1 ± 0.5,35.7 ± 0.5,38.1 ± 0.5,40 ± 0.5,41.6 ± 0.6,43.6 ± 0.6,46.2 ± 0.6,48.4 ± 0.6,–,–,–,–,–
"COP(=O)([O-])OC.Cn1cc[n+](C)c1 [1,3-dimethylimidazolium dimethylphosphate] + O",55.7 ± 0.8,51.8 ± 0.7,50.6 ± 0.7,50 ± 0.7,49.8 ± 0.7,49.3 ± 0.7,49.1 ± 0.7,48.9 ± 0.7,48.6 ± 0.6,48.4 ± 0.6,67 ± 0.9,64.2 ± 0.9,59.5 ± 0.8,53.6 ± 0.7,52.2 ± 0.7
